{
  "source": "patent US8227223B2",
  "about": "“Method and apparatus for facilitating evaluating migration of cells in vitro” (Applied Biophysics, Inc., priority 2009, dated 2012)",
  "origin": "cited, not measured here",
  "key": {"β-adrenergic receptor": {"system": "β-adrenergic receptor", "details": "BAEC endothelial cells"}, "[1]": {"system": "confluent bovine aortic endothelial cells"}, "muscarinic receptor": {"system": "muscarinic receptor", "details": "CHO cells over expressing the muscarinic receptor"}},
  "data": [
    {"compound": "CC(C)NCC(O)c1ccc(O)c(O)c1", "note": "(stereo not shown) [isoproterenol]", "values": [
      {"measurement": "change of impedance of the cell layer upon agonist binding", "setting": "β-adrenergic receptor", "result": "readily measured increase in the impedance"}
    ]},
    {"compound": "thrombin", "values": [
      {"measurement": "change of impedance upon exposure (barrier function)", "setting": "[1]", "result": "drop in impedance"}
    ]},
    {"compound": "C[N+](C)(C)CCOC(N)=O", "note": "[carbachol]", "values": [
      {"measurement": "change of impedance upon binding of the agonist", "setting": "muscarinic receptor; impedance at 4000 Hz", "result": "doubling of impedance"}
    ]},
    {"compound": "CN1CCN(CC(=O)N2c3ccccc3C(=O)Nc3cccnc32)CC1", "note": "[pirenzepine]", "values": [
      {"measurement": "inhibition of the carbachol impedance response", "setting": "muscarinic receptor; antagonist against carbachol", "result": "can be inhibited"}
    ]}
  ]
}
